Measurements reported in PMC12669040, “Tumour-specific STING agonist synthesis via a two-component prodrug system” (Nature Chemistry, 2025).
Several values for one entry are separate records, joined by “and”; a condition that tells them apart may be missing. Equal values may be shown once.

What was measured:
[1] = Colorimetric alkylation rate constant assay with TNB^2− as non-specific thiol; type: physicochemical; parameters: second-order: unit not given here; settings: for remaining [B]: in µM
[2] = Colorimetric alkylation rate constant assay with thiol N1; type: physicochemical; settings: for remaining [A]: N1 from calibration curve (N1 in uM); for remaining [A] / remaining [B]: in µM
[3] = Time 2891 sec, [B]0 = 250, Replicates 1-3
[4] = Time 3071 sec, [B]0 = 250, Replicates 1-3
[5] = Time 3252 sec, [B]0 = 250, Replicates 1-3
[6] = Time 3433 sec, [B]0 = 250, Replicates 1-3
[7] = Time 3613 sec, [B]0 = 250, Replicates 1-3

remaining [B] ([1]; Replicate 1, 723 sec, [B]0 = 250): 243.908 | remaining [B] ([1]; Replicate 1, 903 sec, [B]0 = 250): 243.568 | remaining [B] ([1]; Replicate 1, 1084 sec, [B]0 = 250): 243.228 | remaining [B] ([1]; Replicate 1, 1265 sec, [B]0 = 250): 242.9 | remaining [B] ([1]; Replicate 1, 1445 sec, [B]0 = 250): 242.598 | remaining [B] ([1]; Replicate 1, 1626 sec, [B]0 = 250): 242.232 | remaining [B] ([1]; Replicate 1, 1806 sec, [B]0 = 250): 241.905 | remaining [B] ([1]; Replicate 1, 1988 sec, [B]0 = 250): 241.539 | remaining [B] ([1]; Replicate 1, 2168 sec, [B]0 = 250): 241.224 | remaining [B] ([1]; Replicate 1, 2349 sec, [B]0 = 250): 240.884 | remaining [B] ([1]; Replicate 1, 2530 sec, [B]0 = 250): 240.607 | remaining [B] ([1]; Replicate 1, 2710 sec, [B]0 = 250): 240.229 | remaining [B] ([1]; Replicate 2, 542 sec, [B]0=250): 245.363 | remaining [B] ([1]; Replicate 2, 723 sec, [B]0=250): 245.048 | remaining [B] ([1]; Replicate 2, 903 sec, [B]0=250): 244.733 | remaining [B] ([1]; Replicate 2, 1084 sec, [B]0=250): 244.393 | remaining [B] ([1]; Replicate 2, 1265 sec, [B]0=250): 244.09 | remaining [B] ([1]; Replicate 2, 1445 sec, [B]0=250): 243.737 | remaining [B] ([1]; Replicate 2, 1626 sec, [B]0=250): 243.435 | remaining [B] ([1]; Replicate 2, 1806 sec, [B]0=250): 243.107 | remaining [B] ([1]; Replicate 2, 1988 sec, [B]0=250): 242.78 | remaining [B] ([1]; Replicate 2, 2168 sec, [B]0=250): 242.452 | remaining [B] ([1]; Replicate 2, 2349 sec, [B]0=250): 242.137 | remaining [B] ([1]; Replicate 2, 2530 sec, [B]0=250): 241.772 | remaining [B] ([1]; Replicate 2, 2710 sec, [B]0=250): 241.469 | remaining [B] ([1]; Replicate 3, 723 sec, [B]0=250): 245.156 | remaining [B] ([1]; Replicate 3, 903 sec, [B]0=250): 244.866 | remaining [B] ([1]; Replicate 3, 1084 sec, [B]0=250): 244.475 | remaining [B] ([1]; Replicate 3, 1265 sec, [B]0=250): 244.311 | remaining [B] ([1]; Replicate 3, 1445 sec, [B]0=250): 243.732 | remaining [B] ([1]; Replicate 3, 1626 sec, [B]0=250): 243.593 | remaining [B] ([1]; Replicate 3, 1806 sec, [B]0=250): 243.165 | remaining [B] ([1]; Replicate 3, 1988 sec, [B]0=250): 242.824 | remaining [B] ([1]; Replicate 3, 2168 sec, [B]0=250): 242.61 | remaining [B] ([1]; Replicate 3, 2349 sec, [B]0=250): 242.232 | remaining [B] ([1]; Replicate 3, 2530 sec, [B]0=250): 241.917 | remaining [B] ([1]; Replicate 3, 2710 sec, [B]0=250): 241.653 | remaining [B] [1, 3]: 241.388 and 239.977 and 241.154 | remaining [B] [1, 4]: 240.909 and 239.662 and 240.814 | remaining [B] [1, 5]: 240.708 and 239.321 and 240.524 | remaining [B] [1, 6]: 240.418 and 238.994 and 240.184 | remaining [B] [1, 7]: 240.077 | remaining [A] ([2]; Replicate 1, time 576 sec): 80.4651 | remaining [B] ([2]; Replicate 1, time 576 sec, [B]0 = 250): 226.345 | remaining [A] ([2]; Replicate 1, time 606 sec): 79.6386 | remaining [B] ([2]; Replicate 1, time 606 sec, [B]0 = 250): 225.519 | remaining [A] ([2]; Replicate 2, time 576 sec): 80.4092 | remaining [B] ([2]; Replicate 2, time 576 sec, [B]0=250): 227.268 | remaining [A] ([2]; Replicate 2, time 606 sec): 79.1621 | remaining [B] ([2]; Replicate 2, time 606 sec, [B]0=250): 226.02 | remaining [A] ([2]; Replicate 3, time 576 sec): 81.6859 | remaining [B] ([2]; Replicate 3, time 576 sec, [B]0=250): 227.139 | remaining [A] ([2]; Replicate 3, time 606 sec): 80.8202 | remaining [B] ([2]; Replicate 3, time 606 sec, [B]0=250): 226.273 | remaining [B] ([2]; time 0 sec, [B]0 = 250, replicates 1-3): 247.836 and 246.58 and 246.712 | remaining [B] ([2]; time 30 sec, [B]0 = 250, replicates 1-3): 246.591 and 244.557 and 245.38 | remaining [B] ([2]; time 60 sec, [B]0 = 250, replicates 1-3): 244.968 and 243.73 and 244.048 | remaining [B] ([2]; time 91 sec, [B]0 = 250, replicates 1-3): 243.804 and 242.562 and 242.8 | remaining [B] ([2]; time 121 sec, [B]0 = 250, replicates 1-3): 243.047 and 241.251 and 241.752 | remaining [B] ([2]; time 151 sec, [B]0 = 250, replicates 1-3): 242.371 and 240.196 and 240.873 | remaining [B] ([2]; time 182 sec, [B]0 = 250, replicates 1-3): 241.478 and 239.142 and 240.023 | remaining [B] ([2]; time 212 sec, [B]0 = 250, replicates 1-3): 240.882 and 238.087 and 239.314 | remaining [B] ([2]; time 242 sec, [B]0 = 250, replicates 1-3): 239.746 and 237.004 and 238.605 | remaining [B] ([2]; time 273 sec, [B]0 = 250, replicates 1-3): 238.772 and 235.921 and 237.868 | remaining [B] ([2]; time 303 sec, [B]0 = 250, replicates 1-3): 237.095 and 234.981 and 237.103 | remaining [B] ([2]; time 333 sec, [B]0 = 250, replicates 1-3): 235.255 and 233.898 and 236.026 | remaining [B] ([2]; time 364 sec, [B]0 = 250, replicates 1-3): 234.038 and 233.014 and 234.41 | remaining [B] ([2]; time 394 sec, [B]0 = 250, replicates 1-3): 232.874 and 231.988 and 233.73 | remaining [B] ([2]; time 424 sec, [B]0 = 250, replicates 1-3): 231.738 and 230.934 and 232.256 | remaining [B] ([2]; time 454 sec, [B]0 = 250, replicates 1-3): 230.764 and 230.107 and 231.378 | remaining [B] ([2]; time 485 sec, [B]0 = 250, replicates 1-3): 229.871 and 229.167 and 230.13 | remaining [B] ([2]; time 515 sec, [B]0 = 250, replicates 1-3): 228.978 and 228.226 and 228.94 | remaining [B] ([2]; time 545 sec, [B]0 = 250, replicates 1-3): 227.95 and 227.314 and 227.948
Structure (SMILES): O=C(CCl)Nc1ccccc1 [Compound C2]
second-order [1, 3]: 0.0003773 and 0.0003667 and 0.0004313 | second-order [1, 4]: 0.0003928 and 0.0003885 and 0.000446 | second-order [1, 5]: 0.0004061 and 0.0003977 and 0.0004618 | second-order [1, 6]: 0.0004218 and 0.000411 and 0.0004772 | second-order [1, 7]: 0.0004369 and 0.0004267 and 0.0004915 | second-order ([1]; Time 3794 sec, [B]0 = 250, Replicates 1-3): 0.0004533 and 0.0004448 and 0.000507 | second-order ([1]; Time 3974 sec, [B]0 = 250, Replicates 1-3): 0.0004675 and 0.0004536 and 0.0005214 | second-order ([1]; Time 4155 sec, [B]0 = 250, Replicates 1-3): 0.0004823 and 0.0004725 and 0.0005334 | second-order ([1]; Time 4336 sec, [B]0 = 250, Replicates 1-3): 0.0004965 and 0.0004915 and 0.0005528 | second-order ([1]; Time 4516 sec, [B]0 = 250, Replicates 1-3): 0.0005127 and 0.0005034 and 0.0005668 | second-order ([1]; Time 4697 sec, [B]0 = 250, Replicates 1-3): 0.0005253 and 0.000516 and 0.0005808 | second-order ([1]; Time 4878 sec, [B]0 = 250, Replicates 1-3): 0.000541 and 0.0005322 and 0.0005962 | second-order ([1]; Time 5058 sec, [B]0 = 250, Replicates 1-3): 0.0005592 and 0.0005485 and 0.0006085 | second-order ([1]; Time 5239 sec, [B]0 = 250, Replicates 1-3): 0.0005708 and 0.0005619 and 0.0006247 | second-order ([1]; Time 5419 sec, [B]0 = 250, Replicates 1-3): 0.0005891 and 0.0005723 and 0.0006371 | second-order ([1]; Time 5600 sec, [B]0 = 250, Replicates 1-3): 0.0006027 and 0.0005925 and 0.000654 | second-order ([1]; Time 5781 sec, [B]0 = 250, Replicates 1-3): 0.0006182 and 0.000611 and 0.0006672 | second-order ([1]; Time 5961 sec, [B]0 = 250, Replicates 1-3): 0.0006343 and 0.000624 and 0.0006855 | second-order ([2]; Replicate 1, time 576 sec, second-order plot value): 0.001085 | second-order ([2]; Replicate 1, time 606 sec, second-order plot value): 0.001131 | second-order ([2]; Replicate 2, time 576 sec, second-order plot value): 0.001046 | second-order ([2]; Replicate 2, time 606 sec, second-order plot value): 0.001115 | second-order ([2]; Replicate 3, time 576 sec, second-order plot value): 0.001037 | second-order ([2]; Replicate 3, time 606 sec, second-order plot value): 0.001084 | second-order ([2]; time 0 sec, replicates 1-3): 0.0001305 and 8.4046e-5 and 0.0001345 | second-order ([2]; time 30 sec, replicates 1-3): 0.000185 and 0.0001335 and 0.0002172 | second-order ([2]; time 60 sec, replicates 1-3): 0.0002407 and 0.0001994 and 0.0002516 | second-order ([2]; time 91 sec, replicates 1-3): 0.0002937 and 0.0002475 and 0.000301 | second-order ([2]; time 121 sec, replicates 1-3): 0.0003391 and 0.0002792 and 0.0003575 | second-order ([2]; time 151 sec, replicates 1-3): 0.0003777 and 0.0003079 and 0.0004037 | second-order ([2]; time 182 sec, replicates 1-3): 0.0004154 and 0.0003461 and 0.0004506 | second-order ([2]; time 212 sec, replicates 1-3): 0.0004473 and 0.0003719 and 0.0004982 | second-order ([2]; time 242 sec, replicates 1-3): 0.0004795 and 0.0004218 and 0.000548 | second-order ([2]; time 273 sec, replicates 1-3): 0.0005133 and 0.0004652 and 0.0005985 | second-order ([2]; time 303 sec, replicates 1-3): 0.0005489 and 0.0005414 and 0.0006431 | second-order ([2]; time 333 sec, replicates 1-3): 0.0005997 and 0.0006273 and 0.0006953 | second-order ([2]; time 364 sec, replicates 1-3): 0.0006774 and 0.0006854 and 0.0007385 | second-order ([2]; time 394 sec, replicates 1-3): 0.0007107 and 0.0007421 and 0.0007895 | second-order ([2]; time 424 sec, replicates 1-3): 0.0007842 and 0.0007984 and 0.0008427 | second-order ([2]; time 454 sec, replicates 1-3): 0.0008288 and 0.0008475 and 0.000885 | second-order ([2]; time 515 sec, replicates 1-3): 0.0009559 and 0.0009395 and 0.0009836 | second-order ([2]; time 545 sec, replicates 1-3): 0.001009 and 0.0009937 and 0.001032
